Assay results taken from patent US20200370087A1, “METHOD FOR DETERMINING MICROBIAL SUSCEPTIBILITY TO ANTIBIOTIC AGENTS” (Ascilion AB, priority 2017, published 2020).

Tests used:
[1] = tested on: Staphylococcus aureus (ATCC 29213); test: Glucose consumption susceptibility test, blood culture diluted in MHB with glucose (Example 1); type: cell-based; design: glucose concentration, t = 0 / glucose concentration, t = 60 / glucose concentration, t = 120 / glucose concentration, t = 180 / glucose concentration, t = 240 / dC/dT (rate of change in glucose concentration): unit not given here; details: for F = the rate of change in glucose concentration in relation to the reference / dC/dT (rate of change in glucose concentration) / glucose concentration, t = 0 / glucose concentration, t = 60 / glucose concentration, t = 120 / glucose concentration, t = 180 / glucose concentration, t = 240: S. aureus; for glucose concentration, t = 0: 0 minutes; for glucose concentration, t = 60: 60 minutes; for glucose concentration, t = 120: 120 minutes; for glucose concentration, t = 180: 180 minutes; for glucose concentration, t = 240: 240 minutes
Method: (§1) Strains of Escherichia coli (ATCC 25922), Enterococcus faecalis (ATCC 29212) and Staphylococcus aureus (ATCC 29213) were inoculated in blood culture bottles (SVA, Uppsala, Sweden) and cultivated according to the manufacturer's instructions until positive.
(§2) Medium from each blood culture bottle was diluted 1:100 with cation adjusted Mueller-Hinton broth (SVA, Uppsala, Sweden) supplemented with glucose to a concentration of 1.0 mg/mL.
(§3) Glucose concentrations were measured at 0, 60, 120, 180, and 240 minutes using a WaveSense Jazz glucometer (AgaMatrix, Inc., Salem, N.H., USA) with accompanying test strips.
(§4) Susceptibility scores corresponding to MIC values were calculated as described above. A 80% threshold was applied, i.e. the lowest concentration of antibiotic that entailed a rate of change in glucose concentration that was equal to or less than 80% of the reference was selected as the Minimal Inhibitory Concentration. The rate of change was calculated between the measurements at 60 and 180 minutes.

[2] = tested on: Enterococcus faecalis (ATCC 29212); test: as above; type: cell-based; design: glucose concentration, t = 0 / glucose concentration, t = 60 / glucose concentration, t = 120 / glucose concentration, t = 180 / glucose concentration, t = 240 / dC/dT (rate of change in glucose concentration): unit not given here; details: for F = the rate of change in glucose concentration in relation to the reference / dC/dT (rate of change in glucose concentration) / glucose concentration, t = 0 / glucose concentration, t = 60 / glucose concentration, t = 120 / glucose concentration, t = 180 / glucose concentration, t = 240: E. faecalis; for glucose concentration, t = 0: 0 minutes; for glucose concentration, t = 60: 60 minutes; for glucose concentration, t = 120: 120 minutes; for glucose concentration, t = 180: 180 minutes; for glucose concentration, t = 240: 240 minutes
Method: as §1, §2, §3, §4

[3] = tested on: Staphylococcus aureus ATCC 29213; details: S.aureus, cited from earlier work

For gentamicin, the “F = the rate of change in glucose concentration in relation to the reference” value (from here on “F = the rate of change”) ([1]; antibiotic 0.25 μg/mL) was 66%, the “dC/dT (rate of change in glucose concentration)” value ([1]; antibiotic 0.25 μg/mL) was 22 and the “glucose concentration, t = 0” value ([1]; antibiotic 0.25 μg/mL) was 143. The “glucose concentration, t = 60” value ([1]; antibiotic 0.25 μg/mL) was 146, the “glucose concentration, t = 120” value ([1]; antibiotic 0.25 μg/mL) was 140 and the “glucose concentration, t = 180” value ([1]; antibiotic 0.25 μg/mL) was 102. The “glucose concentration, t = 240” value ([1]; antibiotic 0.25 μg/mL) was 55, the “F = the rate of change” value ([1]; antibiotic 0.5 μg/mL) was 57% and the “dC/dT (rate of change in glucose concentration)” value ([1]; antibiotic 0.5 μg/mL) was 19. The “glucose concentration, t = 0” value ([1]; antibiotic 0.5 μg/mL) was 143, the “glucose concentration, t = 60” value ([1]; antibiotic 0.5 μg/mL) was 154 and the “glucose concentration, t = 120” value ([1]; antibiotic 0.5 μg/mL) was 137. The “glucose concentration, t = 180” value ([1]; antibiotic 0.5 μg/mL) was 116, the “glucose concentration, t = 240” value ([1]; antibiotic 0.5 μg/mL) was 78 and the “F = the rate of change” value ([1]; antibiotic 1 μg/mL) was 30%. For the same substance, the “dC/dT (rate of change in glucose concentration)” value ([1]; antibiotic 1 μg/mL) was 10, the “glucose concentration, t = 0” value ([1]; antibiotic 1 μg/mL) was 137 and the “glucose concentration, t = 60” value ([1]; antibiotic 1 μg/mL) was 154. The “glucose concentration, t = 120” value ([1]; antibiotic 1 μg/mL) was 146, the “glucose concentration, t = 180” value ([1]; antibiotic 1 μg/mL) was 134 and the “glucose concentration, t = 240” value ([1]; antibiotic 1 μg/mL) was 119. The “F = the rate of change” value ([1]; antibiotic 2 μg/mL) was 12%, the “dC/dT (rate of change in glucose concentration)” value ([1]; antibiotic 2 μg/mL) was 4 and the “glucose concentration, t = 0” value ([1]; antibiotic 2 μg/mL) was 144. The “glucose concentration, t = 60” value ([1]; antibiotic 2 μg/mL) was 154, the “glucose concentration, t = 180” value ([1]; antibiotic 2 μg/mL) was 146 and the “glucose concentration, t = 240” value ([1]; antibiotic 2 μg/mL) was 148. For the same substance, the “F = the rate of change” value ([1]; antibiotic 4 μg/mL) was 10%, the “dC/dT (rate of change in glucose concentration)” value ([1]; antibiotic 4 μg/mL) was 4 and the “glucose concentration, t = 60” value ([1]; antibiotic 4 μg/mL) was 157. The “glucose concentration, t = 120” value ([1]; antibiotic 4 μg/mL) was 147, the “glucose concentration, t = 180” value ([1]; antibiotic 4 μg/mL) was 150 and the “glucose concentration, t = 240” value ([1]; antibiotic 4 μg/mL) was 149. For the same substance, the “F = the rate of change” value ([1]; antibiotic 8 μg/mL) was 0%, the “dC/dT (rate of change in glucose concentration)” value ([1]; antibiotic 8 μg/mL) was 0 and the “glucose concentration, t = 0” value ([1]; antibiotic 8 μg/mL) was 142. The “glucose concentration, t = 60” value ([1]; antibiotic 8 μg/mL) was 154, the “glucose concentration, t = 120” value ([1]; antibiotic 8 μg/mL) was 150 and the “glucose concentration, t = 180” value ([1]; antibiotic 8 μg/mL) was 154. For the same substance, the “glucose concentration, t = 240” value ([1]; antibiotic 8 μg/mL) was 140, the “F = the rate of change” value ([1]; antibiotic 16 μg/mL) was 0% and the “dC/dT (rate of change in glucose concentration)” value ([1]; antibiotic 16 μg/mL) was 0. The “glucose concentration, t = 0” value ([1]; antibiotic 16 μg/mL) was 139, the “glucose concentration, t = 60” value ([1]; antibiotic 16 μg/mL) was 145 and the “glucose concentration, t = 120” value ([1]; antibiotic 16 μg/mL) was 150. The “glucose concentration, t = 180” value ([1]; antibiotic 16 μg/mL) was 145, the “glucose concentration, t = 240” value ([1]; antibiotic 16 μg/mL) was 145 and the “F = the rate of change” value ([1]; antibiotic 32 μg/mL) was 3%. The “dC/dT (rate of change in glucose concentration)” value ([1]; antibiotic 32 μg/mL) was 1, the “glucose concentration, t = 0” value ([1]; antibiotic 32 μg/mL) was 144 and the “glucose concentration, t = 60” value ([1]; antibiotic 32 μg/mL) was 148. The “glucose concentration, t = 120” value ([1]; antibiotic 32 μg/mL) was 145, the “glucose concentration, t = 180” value ([1]; antibiotic 32 μg/mL) was 146 and the “glucose concentration, t = 240” value ([1]; antibiotic 32 μg/mL) was 145. For the same substance, the “MIC, Measured” value ([1]; S.aureus, 80% threshold of reference rate of change, 60 to 180 minutes) was 0.25 µg/mL, the “F = the rate of change” value ([2]; antibiotic 0.25 μg/mL) was 144% and the “dC/dT (rate of change in glucose concentration)” value ([2]; antibiotic 0.25 μg/mL) was 52. The “glucose concentration, t = 0” value ([2]; antibiotic 0.25 μg/mL) was 142, the “glucose concentration, t = 60” value ([2]; antibiotic 0.25 μg/mL) was 156 and the “glucose concentration, t = 120” value ([2]; antibiotic 0.25 μg/mL) was 143. The “glucose concentration, t = 180” value ([2]; antibiotic 0.25 μg/mL) was 87, the “F = the rate of change” value ([2]; antibiotic 0.5 μg/mL) was 148% and the “dC/dT (rate of change in glucose concentration)” value ([2]; antibiotic 0.5 μg/mL) was 53. The “glucose concentration, t = 0” value ([2]; antibiotic 0.5 μg/mL) was 146, the “glucose concentration, t = 60” value ([2]; antibiotic 0.5 μg/mL) was 160 and the “glucose concentration, t = 120” value ([2]; antibiotic 0.5 μg/mL) was 138. The “glucose concentration, t = 180” value ([2]; antibiotic 0.5 μg/mL) was 97, the “F = the rate of change” value ([2]; antibiotic 1 μg/mL) was 106% and the “dC/dT (rate of change in glucose concentration)” value ([2]; antibiotic 1 μg/mL) was 38. The “glucose concentration, t = 0” value ([2]; antibiotic 1 μg/mL) was 145, the “glucose concentration, t = 60” value ([2]; antibiotic 1 μg/mL) was 150 and the “glucose concentration, t = 120” value ([2]; antibiotic 1 μg/mL) was 138. The “glucose concentration, t = 180” value ([2]; antibiotic 1 μg/mL) was 100, the “glucose concentration, t = 240” value ([2]; antibiotic 1 μg/mL) was 36 and the “F = the rate of change” value ([2]; antibiotic 2 μg/mL) was 75%. The “dC/dT (rate of change in glucose concentration)” value ([2]; antibiotic 2 μg/mL) was 27, the “glucose concentration, t = 0” value ([2]; antibiotic 2 μg/mL) was 147 and the “glucose concentration, t = 60” value ([2]; antibiotic 2 μg/mL) was 156. The “glucose concentration, t = 120” value ([2]; antibiotic 2 μg/mL) was 143, the “glucose concentration, t = 180” value ([2]; antibiotic 2 μg/mL) was 110 and the “glucose concentration, t = 240” value ([2]; antibiotic 2 μg/mL) was 75. For the same substance, the “F = the rate of change” value ([2]; antibiotic 4 μg/mL) was 46%, the “dC/dT (rate of change in glucose concentration)” value ([2]; antibiotic 4 μg/mL) was 17 and the “glucose concentration, t = 0” value ([2]; antibiotic 4 μg/mL) was 147. The “glucose concentration, t = 60” value ([2]; antibiotic 4 μg/mL) was 154, the “glucose concentration, t = 120” value ([2]; antibiotic 4 μg/mL) was 151 and the “glucose concentration, t = 180” value ([2]; antibiotic 4 μg/mL) was 118. For the same substance, the “glucose concentration, t = 240” value ([2]; antibiotic 4 μg/mL) was 104, the “F = the rate of change” value ([2]; antibiotic 8 μg/mL) was 14% and the “dC/dT (rate of change in glucose concentration)” value ([2]; antibiotic 8 μg/mL) was 5. The “glucose concentration, t = 0” value ([2]; antibiotic 8 μg/mL) was 143, the “glucose concentration, t = 60” value ([2]; antibiotic 8 μg/mL) was 155 and the “glucose concentration, t = 120” value ([2]; antibiotic 8 μg/mL) was 134. For the same substance, the “glucose concentration, t = 180” value ([2]; antibiotic 8 μg/mL) was 136, the “glucose concentration, t = 240” value ([2]; antibiotic 8 μg/mL) was 140 and the “F = the rate of change” value ([2]; antibiotic 16 μg/mL) was 18%. The “dC/dT (rate of change in glucose concentration)” value ([2]; antibiotic 16 μg/mL) was 6, the “glucose concentration, t = 0” value ([2]; antibiotic 16 μg/mL) was 147 and the “glucose concentration, t = 60” value ([2]; antibiotic 16 μg/mL) was 160. For the same substance, the “glucose concentration, t = 120” value ([2]; antibiotic 16 μg/mL) was 152, the “glucose concentration, t = 180” value ([2]; antibiotic 16 μg/mL) was 155 and the “F = the rate of change” value ([2]; antibiotic 32 μg/mL) was 3%. The “dC/dT (rate of change in glucose concentration)” value ([2]; antibiotic 32 μg/mL) was 1, the “glucose concentration, t = 0” value ([2]; antibiotic 32 μg/mL) was 143 and the “glucose concentration, t = 60” value ([2]; antibiotic 32 μg/mL) was 151. The “glucose concentration, t = 180” value ([2]; antibiotic 32 μg/mL) was 142, the “glucose concentration, t = 240” value ([2]; antibiotic 32 μg/mL) was 148 and the “MIC, Measured” value ([2]; E.faecalis, 80% threshold of reference rate of change, 60 to 180 minutes, N/A = not susceptible, no MIC value can be calculated) was 2 µg/mL. The “MIC, EUCAST, range in parentheses” value ([3]; range obtained by EUCAST from ISO 20776-1: 2006) was “(0.125-1) ug/mL” and the “MIC, EUCAST” value ([3]; reference value, Mueller-Hinton agar, incubation 18±2 h) was 0.25 to 0.5 µg/mL.
